In ChEMBL document CHEMBL1649541, “Molecular basis and phenotype of methicillin resistance in Staphylococcus aureus and insights into new beta-lactams that meet the challenge” (Antimicrob Agents Chemother, 2009):
Values after ≈ are worked out from the molar mass of the structure shown.

What was measured:
[1] = system: Staphylococcus aureus; assay: Antimicrobial activity against methicillin-resistant Staphylococcus aureus in mouse systemic infection model; format: functional
[2] = biological target: T1, Penicillin-binding protein 2b (Staphylococcus aureus, UniProt Q9XDB3); assay: Binding affinity to methicillin-susceptible Staphylococcus aureus PBP 3
T1 sequence (Q9XDB3 whole entry): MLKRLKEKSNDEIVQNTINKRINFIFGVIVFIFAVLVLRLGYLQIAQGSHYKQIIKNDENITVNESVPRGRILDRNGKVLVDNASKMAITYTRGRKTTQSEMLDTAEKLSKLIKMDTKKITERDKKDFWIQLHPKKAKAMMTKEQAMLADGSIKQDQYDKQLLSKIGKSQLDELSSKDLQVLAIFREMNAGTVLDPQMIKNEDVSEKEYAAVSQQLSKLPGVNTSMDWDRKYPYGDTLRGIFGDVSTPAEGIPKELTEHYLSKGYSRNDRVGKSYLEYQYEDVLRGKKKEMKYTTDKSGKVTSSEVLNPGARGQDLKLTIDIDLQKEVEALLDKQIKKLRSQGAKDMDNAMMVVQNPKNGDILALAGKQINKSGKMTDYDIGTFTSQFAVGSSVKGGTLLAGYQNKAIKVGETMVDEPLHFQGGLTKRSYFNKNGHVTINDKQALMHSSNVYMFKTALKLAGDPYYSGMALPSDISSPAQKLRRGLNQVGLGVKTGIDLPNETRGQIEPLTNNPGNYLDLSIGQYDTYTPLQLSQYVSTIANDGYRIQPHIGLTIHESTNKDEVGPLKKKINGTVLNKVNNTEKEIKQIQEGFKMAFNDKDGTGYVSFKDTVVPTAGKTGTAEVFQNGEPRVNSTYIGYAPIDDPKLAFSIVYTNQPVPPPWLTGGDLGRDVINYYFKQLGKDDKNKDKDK

[3] = system: Staphylococcus aureus; assay: Antimicrobial activity against methicillin-resistant Staphylococcus aureus ATCC 29213 by CLSI method; format: functional
[4] = biological target: T2, Penicillin-binding protein 4 (Staphylococcus aureus, UniProt P72355); assay: Binding affinity to methicillin-susceptible Staphylococcus aureus PBP 4
T2 sequence (P72355 whole entry): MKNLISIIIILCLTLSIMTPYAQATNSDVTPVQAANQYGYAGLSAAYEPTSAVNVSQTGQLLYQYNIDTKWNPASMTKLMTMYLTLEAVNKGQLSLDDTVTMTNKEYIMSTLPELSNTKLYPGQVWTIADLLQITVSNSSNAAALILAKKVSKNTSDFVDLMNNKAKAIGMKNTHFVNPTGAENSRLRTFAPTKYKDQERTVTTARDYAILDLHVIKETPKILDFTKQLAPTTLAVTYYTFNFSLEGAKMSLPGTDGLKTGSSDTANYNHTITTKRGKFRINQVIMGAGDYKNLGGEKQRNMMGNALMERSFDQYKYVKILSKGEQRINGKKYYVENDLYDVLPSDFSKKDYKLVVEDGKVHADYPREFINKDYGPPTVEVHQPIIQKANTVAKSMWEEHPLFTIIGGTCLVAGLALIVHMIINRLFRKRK

[5] = system: Staphylococcus aureus; assay: Antimicrobial activity against community-acquired Staphylococcus aureus; format: functional
[6] = system: Staphylococcus aureus; assay: Antimicrobial activity against vancomycin-resistant Staphylococcus aureus; format: functional
[7] = biological target: T3, MecA (Staphylococcus aureus, UniProt Q7DHH4); assay: Inhibition of methicillin-resistant Staphylococcus aureus PBP 2a
T3 sequence (Q7DHH4 whole entry): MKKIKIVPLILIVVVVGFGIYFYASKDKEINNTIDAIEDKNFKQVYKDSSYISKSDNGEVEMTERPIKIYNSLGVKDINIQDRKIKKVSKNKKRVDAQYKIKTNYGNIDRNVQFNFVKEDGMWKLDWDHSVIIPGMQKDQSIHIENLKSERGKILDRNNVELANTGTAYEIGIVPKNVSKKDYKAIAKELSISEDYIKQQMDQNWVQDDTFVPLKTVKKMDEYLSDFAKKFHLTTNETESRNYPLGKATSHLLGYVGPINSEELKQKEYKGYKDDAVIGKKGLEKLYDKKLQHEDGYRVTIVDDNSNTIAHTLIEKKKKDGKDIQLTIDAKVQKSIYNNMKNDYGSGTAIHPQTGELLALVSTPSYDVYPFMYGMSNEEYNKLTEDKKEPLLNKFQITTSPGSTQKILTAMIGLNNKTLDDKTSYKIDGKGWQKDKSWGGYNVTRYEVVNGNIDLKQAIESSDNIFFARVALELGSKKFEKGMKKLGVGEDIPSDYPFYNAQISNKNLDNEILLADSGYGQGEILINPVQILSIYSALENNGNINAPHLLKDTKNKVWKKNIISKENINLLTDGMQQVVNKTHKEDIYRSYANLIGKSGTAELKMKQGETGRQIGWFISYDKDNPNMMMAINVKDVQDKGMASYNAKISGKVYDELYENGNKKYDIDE

[8] = biological target: T4, Penicillin-binding protein 1 (Staphylococcus aureus, UniProt Q53725); assay: Binding affinity to methicillin-susceptible Staphylococcus aureus PBP 1
T4 sequence (Q53725 whole entry): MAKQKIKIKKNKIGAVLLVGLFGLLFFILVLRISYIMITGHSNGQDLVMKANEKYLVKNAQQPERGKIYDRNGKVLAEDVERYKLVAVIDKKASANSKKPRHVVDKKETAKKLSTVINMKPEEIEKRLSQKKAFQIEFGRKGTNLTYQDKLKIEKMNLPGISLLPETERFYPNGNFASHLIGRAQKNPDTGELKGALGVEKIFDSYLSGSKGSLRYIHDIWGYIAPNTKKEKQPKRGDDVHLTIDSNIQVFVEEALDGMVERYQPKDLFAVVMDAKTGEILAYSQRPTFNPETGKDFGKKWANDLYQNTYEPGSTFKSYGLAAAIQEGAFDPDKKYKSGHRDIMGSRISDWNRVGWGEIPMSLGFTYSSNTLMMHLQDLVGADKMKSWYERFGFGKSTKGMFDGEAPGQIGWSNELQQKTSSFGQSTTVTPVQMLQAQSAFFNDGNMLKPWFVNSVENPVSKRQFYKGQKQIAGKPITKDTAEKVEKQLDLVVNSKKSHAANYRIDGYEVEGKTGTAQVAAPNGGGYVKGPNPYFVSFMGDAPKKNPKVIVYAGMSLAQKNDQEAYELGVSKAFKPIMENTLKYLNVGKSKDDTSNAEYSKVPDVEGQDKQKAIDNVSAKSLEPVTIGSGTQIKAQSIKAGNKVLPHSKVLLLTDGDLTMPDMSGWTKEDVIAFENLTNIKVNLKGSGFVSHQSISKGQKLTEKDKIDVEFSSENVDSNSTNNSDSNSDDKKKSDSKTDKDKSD

[9] = system: Staphylococcus aureus; assay: Antimicrobial activity against daptomycin-nonsusceptible Staphylococcus aureus; format: functional
[10] = biological target: T5, Penicillin-binding protein 2 (Staphylococcus aureus, UniProt Q53729); assay: Binding affinity to methicillin-susceptible Staphylococcus aureus PBP 2
T5 sequence (Q53729 whole entry): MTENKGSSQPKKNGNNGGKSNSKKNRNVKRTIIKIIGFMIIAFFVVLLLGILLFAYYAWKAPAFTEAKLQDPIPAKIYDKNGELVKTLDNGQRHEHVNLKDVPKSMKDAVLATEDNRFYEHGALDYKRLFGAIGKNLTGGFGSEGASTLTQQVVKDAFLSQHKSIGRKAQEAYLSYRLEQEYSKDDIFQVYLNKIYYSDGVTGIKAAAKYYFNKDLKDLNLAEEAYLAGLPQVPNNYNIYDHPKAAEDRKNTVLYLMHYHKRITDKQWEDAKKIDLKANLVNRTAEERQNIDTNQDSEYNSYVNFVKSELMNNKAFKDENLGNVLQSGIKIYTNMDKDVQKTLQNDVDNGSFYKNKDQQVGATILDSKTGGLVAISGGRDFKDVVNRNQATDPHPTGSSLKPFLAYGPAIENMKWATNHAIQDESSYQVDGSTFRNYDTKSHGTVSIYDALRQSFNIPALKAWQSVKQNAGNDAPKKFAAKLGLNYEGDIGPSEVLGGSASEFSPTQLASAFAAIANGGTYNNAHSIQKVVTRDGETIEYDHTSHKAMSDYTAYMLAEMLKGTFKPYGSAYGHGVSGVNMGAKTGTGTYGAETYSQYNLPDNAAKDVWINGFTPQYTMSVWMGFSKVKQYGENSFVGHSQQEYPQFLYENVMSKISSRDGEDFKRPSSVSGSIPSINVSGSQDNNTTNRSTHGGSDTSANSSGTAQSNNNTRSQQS

[11] = system: Staphylococcus aureus; assay: Antimicrobial activity against vancomycin-intermediate Staphylococcus aureus; format: functional
[12] = system: Staphylococcus aureus; assay: Antimicrobial activity against methicillin-susceptible Staphylococcus aureus ATCC 29213 by M7-A7 dilution method; format: functional
[13] = biological target: T3, MecA; assay: Binding affinity to methicillin-resistant Staphylococcus aureus MF535HR PBP 2a by competitive binding assay
[14] = system: Staphylococcus aureus; assay: Bactericidal activity against methicillin-resistant Staphylococcus aureus; format: functional
[15] = system: Staphylococcus aureus; assay: Ratio of MBC to MIC for methicillin-resistant Staphylococcus aureus; format: functional
[16] = system: Staphylococcus aureus; assay: Antimicrobial activity against methicillin-resistant Staphylococcus aureus; format: functional
[17] = biological target: T3, MecA; assay: Inhibition of methicillin-resistant Staphylococcus aureus OC 3726 PBP 2a
[18] = biological target: T2, Penicillin-binding protein 4; assay: Inhibition of methicillin-susceptible Staphylococcus aureus ATCC 29213 PBP 4
[19] = system: Staphylococcus aureus; assay: Antimicrobial activity against methicillin-resistant Staphylococcus aureus infected in patient with complicated skin and skin structure infection assessed as cure rate at 500 mg/kg, iv administered every 12 hrs; format: functional
[20] = biological target: T5, Penicillin-binding protein 2; assay: Inhibition of methicillin-susceptible Staphylococcus aureus ATCC 29213 PBP 2
[21] = system: Staphylococcus aureus; assay: Antimicrobial activity against methicillin-resistant Staphylococcus aureus infected in patient with complicated skin and skin structure infection assessed as cure rate at 1 g/kg, iv administered every 12 hrs; format: functional
[22] = biological target: T1, Penicillin-binding protein 2b; assay: Inhibition of methicillin-susceptible Staphylococcus aureus ATCC 29213 PBP 3
[23] = biological target: T4, Penicillin-binding protein 1; assay: Inhibition of methicillin-susceptible Staphylococcus aureus ATCC 29213 PBP 1

CC(=O)NC[C@H]1CN(c2ccc(N3CCOCC3)c(F)c2)C(=O)O1 [LINEZOLID]
ED50 [1]: 7.4 mg/kg

CCO/N=C(\C(=O)N[C@@H]1C(=O)N2C(C(=O)[O-])=C(Sc3nc(-c4cc[n+](C)cc4)cs3)CS[C@H]12)c1nsc(NP(=O)(O)O)n1 [CEFTAROLINE FOSAMIL]
IC50 [2]: 71.6 nM | MIC [3]: 0.25 µg/mL (≈ 0.365 µM) | IC50 [4]: > 1460 nM | MIC90 [5]: 1 µg/mL (≈ 1.46 µM) | MIC [6]: 0.12 µg/mL (≈ 0.175 µM) | IC50 [7]: 234 nM | IC50 [8]: 146 nM | MIC [9]: 0.5 µg/mL (≈ 0.73 µM) | IC50 [10]: 49.7 nM | MIC90 [11]: 1 µg/mL (≈ 1.46 µM)

CC(C)(O/N=C(\C(=O)N[C@@H]1C(=O)N2C(C(=O)[O-])=C(C[n+]3ccccc3)CS[C@H]12)c1csc(N)n1)C(=O)O [CEFTAZIDIME]
MIC [12]: > 128 µg/mL

C[C@@H](O)[C@H]1C(=O)N2C(C(=O)[O-])=C(c3cn4cnc(C(=O)c5ccc[n+](CC(N)=O)c5)c4s3)[C@H](C)[C@H]12
IC50 [13]: 262 nM

C[C@H]1C=C(c2csc(SC3=C(C(=O)O)N4C(=O)[C@H]([C@@H](C)O)[C@H]4[C@H]3C)n2)CN1 [RAZUPENEM]
MBC [14]: 0.5 µg/mL (≈ 1.23 µM) | ED50 [1]: 4.7 mg/kg | Ratio [15]: 1 | MIC90 [16]: 2 µg/mL (≈ 4.91 µM)

Cc1oc(=O)oc1COC(=O)N1CC[C@@H](N2CC/C(=C\C3=C(C(=O)O)N4C(=O)[C@@H](NC(=O)/C(=N/O)c5nsc(N)n5)[C@H]4SC3)C2=O)C1 [CEFTOBIPROLE MEDOCARIL FREE ACID]
IC50 [17]: 1300 nM | MIC [12]: 2 µg/mL (≈ 2.9 µM) | IC50 [18]: 1450 nM | Activity [19]: 92% | IC50 [20]: 724 nM | Activity [21]: 90% | IC50 [22]: 72.4 nM | IC50 [23]: 145 nM

CN[C@H](CC(C)C)C(=O)N[C@H]1C(=O)N[C@@H](CC(N)=O)C(=O)N[C@H]2C(=O)N[C@H]3C(=O)N[C@H](C(=O)N[C@H](C(=O)O)c4cc(O)cc(O)c4-c4cc3ccc4O)[C@H](O)c3ccc(c(Cl)c3)Oc3cc2cc(c3O[C@@H]2O[C@H](CO)[C@@H](O)[C@H](O)[C@H]2O[C@H]2C[C@](C)(N)[C@H](O)[C@H](C)O2)Oc2ccc(cc2Cl)[C@H]1O [VANCOMYCIN]
ED50 [1]: 6 mg/kg

CO/N=C(\C(=O)N[C@@H]1C(=O)N2C(C(=O)O)=C(CSc3nc(=O)c(O)nn3C)CS[C@H]12)c1csc(N)n1 [CEFTRIAXONE]
MIC [12]: > 64 µg/mL
